Results reported in patent publication US20250122155A1, “NOVEL INDOLE DERIVATIVE, PHARMACEUTICAL COMPOSITION COMPRISING SAME, AND USE THEREOF” (MITOIMMUNE THERAPEUTICS INC., priority 2021, published 2025).

Columns and labels:
PC-12 cells = assay: Cell death protective effect in adrenal cells against Erastin, glutamate and RSL3 (LDH); assay type: cell-based, rat; settings: 24 hours
Experimental: In order to identify the protective effect on adrenal cells, PC-12 cells were divided into 96-well plates by 1×10^4 and cultured for 18 to 24 hours. The compounds of Examples were diluted to final concentrations of 0.1 and 1.0 μM in Erastin, 0.01 and 0.1 in glutamate, and 0.3 and 3.0 μM in RSL3, treated in each well, and incubated for 15 to 20 minutes. Erastin, glutamate, and RSL3 were treated to have final concentrations of 1 μM, 10 mM, and 0.3 μM, respectively, and cultured for 24 hours. In order to identify the protective effect of each compound, the degree of LDH extracellular secretion was measured using cytotoxicity LDH assay kit [Dojindo; CK12]. Briefly, at the time when the treatment of the cells with Erastin, glutamate, and RSL3 for 24 hours is completed, the supernatants containing the cells are taken by 70 μL and transferred to a new 96-well plate. The assay buffer included in the kit is added in an amount of 70 μL/well (the same amount as the sample) thereto, and then the plate is wrapped with a foil and the reaction is performed at room temperature for 15 minutes. After observing the changed color of the sample, the stop solution was added in an amount of 35 µL/well thereto, and then the 0 inhibition value was calculated by measuring the absorbance value at a wavelength of 490 nm using an iD3 spectrophotometer.

ARPE-19 cells = assay: Cell death protective effect in retinal epithelial cells against Erastin and RSL3 (LDH); assay type: cell-based, human; settings: 24 hours
Experimental: In order to identify the protective effect on retinal epithelial cells, ARPE-19 cells were divided into 96-well plates by 1×10^4 and cultured for 18 to 24 hours. The compounds of Examples were diluted to final concentrations of 0.03 and 0.3 μM, treated in each well, and incubated for 20 minutes. Erastin, and RSL3 were treated to have final concentrations of 10 μM, and 0.3 μM, respectively, and cultured for 24 hours. In order to identify the protective effect of each compound, the degree of LDH extracellular secretion was measured using cytotoxicity LDH assay kit [Dojindo; CK12]. Briefly, at the time when the treatment of the cells with Erastin, and RSL3 for 24 hours is completed, the supernatants containing the cells are taken by 70 μL and transferred to a new 96-well plate. The assay buffer included in the kit is added in an amount of 70 μL/well (the same amount as the sample) thereto, and then the plate is wrapped with a foil and the reaction is performed at room temperature for 15 minutes.

[1] = PC-12, Erastin 1 μM, compound 0.1 μM
[2] = PC-12, Erastin 1 μM, compound 1.0 μM
[3] = PC-12, Glutamate 10 mM, compound 0.01 μM
[4] = PC-12, Glutamate 10 mM, compound 0.1 μM
[5] = PC-12, RSL3 0.3 μM, compound 0.3 μM
[6] = PC-12, RSL3 0.3 μM, compound 3.0 μM
[7] = ARPE-19, Erastin 10 μM, compound 0.03 μM
[8] = ARPE-19, Erastin 10 μM, compound 0.3 μM
[9] = ARPE-19, RSL3 0.3 μM, compound 0.03 μM
[10] = ARPE-19, RSL3 0.3 μM, compound 0.3 μM

SMILES | inhibition (%) (PC-12 cells; [1]) | inhibition (%) (PC-12 cells; [2]) | inhibition (%) (PC-12 cells; [3]) | inhibition (%) (PC-12 cells; [4]) | inhibition (%) (PC-12 cells; [5]) | inhibition (%) (PC-12 cells; [6]) | inhibition (%) (ARPE-19 cells; [7]) | inhibition (%) (ARPE-19 cells; [8]) | inhibition (%) (ARPE-19 cells; [9]) | inhibition (%) (ARPE-19 cells; [10])
COCCOCc1cc(NCc2ccncc2)c2[nH]c(-c3ccccc3)cc2c1 [Example 45, 5-(2-methoxyethoxymethyl)-2-phenyl-N-(4-pyridylmethyl)-1H-indol-7-amine] | 100% | 100% | 57% | 100% | 100% | 100% | 100% | 100% | 100% | 100%
COCCOCc1cc(NC2CCN(C(C)=O)CC2)c2[nH]c(-c3ccccc3)cc2c1 [Example 30, 1-[4-[[5-(2-methoxyethoxymethyl)-2-phenyl-1H-indol-7-yl]amino]piperidyl]-1-ethanone] | 86% | 100% | 33% | 95% | 100% | 100% | 80% | 100% | 60% | 100%
CCOC(=O)c1ccc(NC2CCCCC2)c(N)c1 [Ferrostatin-1, reference compound] | 100% | 100% | 35% | 98% | 100% | 100% | 86% | 100% | 61% | 100%
COCCOCc1cc(NCC2CCOCC2)c2[nH]c(-c3ccccc3)cc2c1 [Example 4, 5-2(methoxyethoxymethyl)-2-phenyl-N-(tetrahydropyran-4-ylmethyl)-1H-indol-7-amine] | 100% | 100% | 53% | 96% | 100% | 100% | 100% | 100% | 100% | 100%
CCOCCOCc1cc(NC2CCCC2)c2[nH]c(-c3ccccc3)cc2c1 [Example 36, N-cyclopentyl-5-(2-ethoxyethoxymethyl)-2-phenyl-1H-indol-7-amine] | 100% | 100% | 61% | 95% | 100% | 100% | 98% | 100% | 100% | 100%
COCCOCCOCc1cc(NC2CCCC2)c2[nH]c(-c3ccccc3)cc2c1 [Example 39, N-cyclopentyl-5-[2-(2-methoxyethoxy)ethoxymethyl]-2-phenyl-1H-indol-7-amine] | 100% | 100% | 52% | 97% | 100% | 100% | 100% | 100% | 100% | 100%
COCCOCc1cc(NC2CCOCC2)c2[nH]cc(C)c2c1 [Example 50, 5-(2-methoxyethoxymethyl)-3-methyl-N-tetrahydropyran-4-yl-1H-indol-7-amine] | 41% | 68% | 16% | 25% | 0% | 100% | 19% | 86% | 4% | 45%
COCCOCc1cc(NC2CCOCC2)c2[nH]c(-c3ccccc3)cc2c1 [Example 1, 5-(2-methoxyethoxymethyl)-2-phenyl-N-tetrahydropyran-4-yl-1H-indol-7-amine] | 100% | 100% | 53% | 98% | 100% | 100% | 100% | 100% | 95% | 100%
COCCOCc1cc(NC2CCNCC2)c2[nH]c(-c3ccccc3)cc2c1 [Example 64, 5-((2-methoxyethoxy)methyl)-2-phenyl-N-(piperidin-4-yl)-1H-indol-7-amine] | 100% | 100% | 39% | 97% | 78% | 100% | 100% | 100% | 67% | 100%
